Converted amounts (≈) assume the structure as drawn.
Tests used:
[1] = Glibenclamide particle size distribution; assay type: physicochemical; details: glibenclamide batch
Procedure: In-vivo bioavailability tests were performed with tablets prepared as disclosed in example 2, using two batches of glibenclamide. The two batches have the following 10 to 90% particle size range:
The distribution of the particle size of batches A and B are illustrated in FIG. 1.
Data from the studies with metformin hydrochloride/glibenclamide tablets formulated with glibenclamide of different particle size characteristics allowed the development of a correlation between drug particle size and the in vivo performance.

[2] = in water at 25° C.; cited from earlier work

10 to 90% particle size range [1]	Compound	solubility [2] [mg/mL]
3.47-38.08 μm	COc1ccc(Cl)cc1C(=O)NCCc1ccc(S(=O)(=O)NC(=O)NC2CCCCC2)cc1 [batch A, glibenclamide]	–
15.63-91.6 μm	COc1ccc(Cl)cc1C(=O)NCCc1ccc(S(=O)(=O)NC(=O)NC2CCCCC2)cc1 [batch B, glibenclamide]	–
–	COc1ccc(Cl)cc1C(=O)NCCc1ccc(S(=O)(=O)NC(=O)NC2CCCCC2)cc1 [glibenclamide]	0.1 (≈ 202 µM)

Source: patent publication USRE38629E1, “Solid oral dosage form comprising a combination of metformin and glibenclamide” (Merck Sante, priority 1998, dated 2004)
